Measurements taken from patent US20190263799A1, “1H-IMIDAZO[4,5-B]PYRIDINYL AND 2-OXO-2,3-DIHYDRO-1H-IMIDAZO[4,5-B]PYRIDINYL HETEROCYCLIC BET BROMODOMAIN INHIBITORS” (ZENITH EPIGENETICS LTD., priority 2015, published 2019).
Where two headings read alike, the source gives them in different places.

How the values were obtained:
[1] = molecular target: T1, BRD4(1) (Homo sapiens, UniProt O60885); test: Inhibition of tetra-acetylated histone H4 binding to individual BET bromodomains (AlphaScreen); details: His-tagged BRD4(1) 20 nM, biotinylated tetra-acetylated histone H4 peptide, 30 min incubation; read-out: FRET activity BRD4(1)
T1 construct: N-terminally His-tagged bromodomains (BRD4(1) at 20 nM and BRD4(2) at 100 nM); made in house; host or cells: E. coli BL21(DE3)
Procedure: Proteins were cloned and overexpressed with a N-terminal 6×His tag, then purified by nickel affinity followed by size exclusion chromatography. Briefly, E. coli BL21(DE3) cells were transformed with a recombinant expression vector encoding N-terminally Nickel affinity tagged bromodomains from Brd2, Brd3, Brd4. Cell cultures were incubated at 37° C. with shaking to the appropriate density and induced overnight with IPTG. The supernatant of lysed cells was loaded onto Ni-IDA column for purification. Eluted protein was pooled, concentrated and further purified by size exclusion chromatography. Fractions representing monomeric protein were pooled, concentrated, aliquoted, and frozen at −80° C. for use in subsequent experiments.
Binding of tetra-acetylated histone H4 peptide (Millipore) and BET bromodomains was confirmed by Amplified Luminescent Proximity Homogenous Assay (AlphaScreen). N-terminally His-tagged bromodomains (BRD4(1) at 20 nM and BRD4(2) at 100 nM) and biotinylated tetra-acetylated histone H4 (10-25 nM) were incubated in the presence of nickel chelate acceptor beads and streptavidin donor beads (PerkinAlmer, 6760000K) added to a final concentration of 2 μg/mL under green light in a white 96 well microtiter plate (Greiner). For inhibition assays, serially diluted compounds were added to the reaction mixtures in a 0.1% final concentrations of DMSO. Final buffer concentrations were 50 mM HEPES, 100 mM NaCl and 0.1% BSA buffer, pH 7.4 and optimized to 30 min incubation time. Assay plates were read at 570 nm on a Synergy H4 Plate Reader (Biotek). IC50 values were determined from a dose response curve.

[2] = tested on: MV4-11 cells; test: Washout proliferation: durability of proliferation inhibition in MV4-11 cells; type: cell-based; details: Homo sapiens
Procedure: FIG. 1 depicts inhibition of proliferation. […] MV4-11 cells were treated for 16 hours after which compounds were removed, cells washed 3 times with media, replaced with media and proliferation was measured at 72 h post washout.
MV4-11 cells (CRL-9591) were plated at a density of 5×10^4 cells per well in 96 well flat bottom plates and treated with increasing concentrations of compounds or DMSO (0.1%) in IMDM media containing 10% FBS and penicillin/streptomycin. Triplicate wells were used for each concentration and a well containing only media was used as a control. Plates were incubated at 37° C., 5% CO2 for 16 h after which the compounds were removed, replaced with media, and proliferation was measured at 72 hours post washout by adding 100 μL of the Cell Titer Fluor 96 Cell Viability Assay (Promega). After the incubation for 45 min at 37° C. with 5% CO2 fluorescence is read on the Synergy plate reader set at 380-400 nm Ex/505 nm. Percentage of cell viability to DMSO-treated cells was calculated after correcting for background by subtracting the blank well's signal. IC50 values were calculated using the GraphPad Prism software from the dose-dependent inhibition of proliferation.

[3] = tested on: BCL2; test: Durability of BCL2 expression inhibition after washout in MV4-11 cells; type: cell-based; details: Homo sapiens
Procedure: (§1) MV4-11 cells were treated for 3 hours after which compounds were removed, cells washed with media 3 times, replaced with media; harvest was performed 5 hours post washout and the expression of MYC and BCL2 was determined.
(§2) MV4-11 cells (CRL-9591) were plated at a density of 2.5×10^4 cells per well in 96 well U-bottom plates and treated with increasing concentrations of test compound or DMSO (0.1%) in IMDM media containing 10% FBS and penicillin/streptomycin, and incubated for […] 37° C. after which the compounds are removed, replaced with media and cells were harvested at 5 hours post washout. Triplicate wells were used for each concentration. Cells were pelleted by centrifugation and harvested using the mRNA Catcher PLUS kit according to manufacturer's instructions. The eluted mRNA isolated was then used in a one-step quantitative real-time PCR reaction, using components of the RNA UltraSense™ One-Step Kit (Life Technologies) together with Applied Biosystems TaqMan® primer-probes for cMYC and Cyclophilin. Real-time PCR plates were run on a ViiA™7 real time PCR machine (Applied Biosystems), data was analyzed, normalizing the Ct values for MYC and BCL2 to an internal control, prior to determining the fold expression of each sample, relative to the control.

[4] = tested on: MYC; test: Durability of MYC expression inhibition after washout in MV4-11 cells; type: cell-based; details: Homo sapiens
Procedure: as §1, §2

[5] = tested on: cMYC; test: Inhibition of cMYC expression in cancer cell lines (MV4-11, real-time PCR); type: cell-based; details: Homo sapiens, read-out: Myc activity
Procedure: MV4-11 cells (CRL-9591) were plated at a density of 2.5×10^4 cells per well in 96 well U-bottom plates and treated with increasing concentrations of test compound or DMSO (0.1%) in IMDM media containing 10% FBS and penicillin/streptomycin, and incubated for 3 h at 37° C. Triplicate wells were used for each concentration. Cells were pelleted by centrifugation and harvested using the mRNA Catcher PLUS kit according to manufacturer's instructions. The eluted mRNA isolated was then used in a one-step quantitative real-time PCR reaction, using components of the RNA UltraSense™ One-Step Kit (Life Technologies) together with Applied Biosystems TaqMan® primer-probes for cMYC and Cyclophilin. Real-time PCR plates were run on a ViiA™7 real time PCR machine (Applied Biosystems), data were analyzed, normalizing the Ct values for cMYC to an internal control, prior to determining the fold expression of each sample, relative to the control.

[6] = tested on: MV4-11 cells; test: Inhibition of cell proliferation in cancer cell lines (MV4-11, CellTiter Aqueous One); type: cell-based; details: Homo sapiens, read-out: Proliferation activity
Procedure: MV4-11 cells (CRL-9591) were plated at a density of 5×10^4 cells per well in 96 well flat bottom plates and treated with increasing concentrations of test compound or DMSO (0.1%) in IMDM media containing 10% FBS and penicillin/streptomycin. Triplicate wells were used for each concentration and a well containing only media was used as a control. Plates were incubated at 37° C., 5% CO2 for 72 h before adding 20 μL of the CellTiter Aqueous One Solution (Promega) to each well and incubating at 37° C., 5% CO2 for an additional 3-4 h. The absorbance was read at 490 nm in a spectrophotometer and the percentage of cell titer relative to DMSO-treated cells was calculated after correcting for background by subtracting the blank well's signal. IC50 values were calculated using the GraphPad Prism software.

[7] = MV4-11 cells, 3 h incubation, cMYC mRNA

Compound	IC50 [1]	IC50 ([2]; MV4-11 cells treated 16 h, washed, proliferation measured 72 h post washout, read-out: IC50 of inhibition of proliferation after 72 hours of compound removal)	IC50 ([3]; MV4-11 cells treated 3 h, washed, harvested 5 h post washout, read-out: IC50 of BCL2 inhibition at 5 hours post washout)	IC50 ([4]; MV4-11 cells treated 3 h, washed, harvested 5 h post washout, read-out: IC50 of sustained MYC inhibition at 5 h post washout)	IC50 [5, 7]	IC50 ([6]; MV4-11 cells, 72 h incubation)	IC50 ([2]; MV4-11, read-out: IC50 of inhibition of proliferation after 72 hours of compound removal)	IC50 ([3]; MV4-11, read-out: IC50 of BCL2 inhibition at 5 hours post washout)	IC50 ([4]; MV4-11, read-out: IC50 of sustained MYC inhibition at 5 h post washout)	IC50 ([5]; MV4-11, 3 h)	IC50 ([6]; MV4-11, 72 h)
CC(=O)N(C)c1cnc2nc(N3CCCC3)n(Cc3ccccc3)c2c1 [Example 18, N-(1-Benzyl-2-(pyrrolidin-1-yl)-1H-imidazo[4,5-b]pyridin-6-yl)-N-methylacetamide]	≤ 0.3 µM	~50 µM	~50 µM	29 µM	0.3 to 3 µM	0.3 to 3 µM	–	–	–	–	–
C=CC(=O)N(C)c1cnc2nc(N3CCCC3)n(Cc3ccccc3)c2c1 [Example 15, N-(1-Benzyl-2-(pyrrolidin-1-yl)-1H-imidazo[4,5-b]pyridin-6-yl)-N-methylacrylamide]	≤ 0.3 µM	–	–	–	–	–	5.98 µM	7.9 µM	23 µM	0.3 to 3 µM	0.3 to 3 µM
CC(=O)N(C)c1cnc2c(c1)n(Cc1ccccc1)c(=O)n2C [Example 11, N-(1-Benzyl-3-methyl-2-oxo-2,3-dihydro-1H-imidazo[4,5-b]pyridin-6-yl)-N-methylacetamide]	≤ 0.3 µM	–	–	–	3 to 30 µM	3 to 30 µM	–	–	–	–	–
C=CC(=O)N(C)c1cnc2nc(N3CC[C@H](CO)C3)n(Cc3ccccc3)c2c1 [Example 25, (S)—N-(1-Benzyl-2-(3-(hydroxymethyl)pyrrolidin-1-yl)-1H-imidazo[4,5-b]pyridin-6-yl)-N-methylacrylamide]	≤ 0.3 µM	–	–	–	< 0.3 µM	0.3 to 3 µM	–	–	–	–	–
C=CC(=O)N(C)c1cnc2nc(N3CC(O)C3)n(Cc3ccccc3)c2c1 [Example 42, N-(1-Benzyl-2-(3-hydroxyazetidin-1-yl)-1H-imidazo[4,5-b]pyridin-6-yl)-N-methylacrylamide]	≤ 0.3 µM	–	–	–	–	–	–	–	–	3 to 30 µM	3 to 30 µM
CNC(=O)N(C)c1cnc2nc(N3CCCC3)n(Cc3ccccc3)c2c1 [Example 31, 1-(1-Benzyl-2-(pyrrolidin-1-yl)-1H-imidazo[4,5-b]pyridin-6-yl)-1,3-dimethylurea]	0.3 to 3 µM	–	–	–	0.3 to 3 µM	3 to 30 µM	–	–	–	–	–
CC(C)OC(=O)N(C)c1cnc2nc(N3CCCC3)n(Cc3ccccc3)c2c1 [Example 37, Isopropyl (1-benzyl-2-(pyrrolidin-1-yl)-1H-imidazo[4,5-b]pyridin-6-yl)(methyl)carbamate]	0.3 to 3 µM	–	–	–	–	–	–	–	–	0.3 to 3 µM	3 to 30 µM
